Measurements reported in patent US20040029823A1, “Antisense oligonucleotide compositions and methods for the modulation of JNK proteins” (priority 1997, published 2004).
Strand notation (5' to 3'): a small letter for the sugar, then the base; units joined by * are phosphorothioate-linked, units joined directly phosphodiester-linked; [ ] holds rarer units or linkages, { } end groups; capitals alone tell only the bases. e = 2'-O-(2-methoxyethyl) (MOE); [5mC] = 5-methylcytosine; d = 2'-deoxy (DNA)

Tested on: JNK2 mRNA
Assay: Northern assay of JNK2 mRNA expression in A549 cells
Format: cell-based, human
Settings: for % EXPRESSION: relative to LIPOFECTIN-only control
Procedure: In order to evaluate the activity of potential JNK-modulating oligonucleotides, human lung carcinoma cell line A549 (American Type Culture Collection, Rockville, Md. No. ATCC CCL-185) cells or other cell lines as indicated in the Examples, were grown and treated with oligonucleotides or control solutions as detailed below. After harvesting, cellular extracts were prepared and examined for specific JNK mRNA levels or JNK protein levels (i.e., Northern or Western assays, respectively). In all cases, “% expression” refers to the amount of JNK-specific signal in an oligonucleotide-treated cell relative to an untreated cell (or a cell treated with a control solution that lacks oligonucleotide), and “% inhibition” is calculated as
100%−% Expression =% Inhibition.
Northern Assays: The mRNA expression of each JNK protein was determined by using a nucleic acid probe specifically hybridizable thereto. Nucleic acid probes specific for JNK1, JNK2 and JNK3 are described in Examples 3, 4 and 5, respectively. The probes were radiolabelled by means well known in the art (see, e.g., Short Protocols in Molecular Biology, 2nd Ed., Ausubel et al., Eds., John Wiley & Sons, New York, 1992, pages 3-11 to 2-3-44 and 4-17 to 4-18; Ruth, Chapter 6 In: Methods in Molecular Biology, Vol. 26: Protocols for Oligonucleotide Conjugates, Agrawal, ed., Humana Press Inc., Totowa, N.J., 1994, pages 167-185; and Chapter 10 In: Molecular Cloning: A Laboratory Manual, 2nd Ed., Sambrook et al., Eds., pages 10.1-10.70). The blots were stripped and reprobed with a ^32P-labeled glyceraldehyde 3-phosphate dehydrogenase (G3PDH) probe (Clontech Laboratories, Inc., Palo Alto, Calif.) in order to confirm equal loading of RNA and to allow the levels of JNK transcripts to be normalized with regard to the G3PDH signals.
A549 cells were grown in T-75 flasks until 80-90% confluent. At this time, the cells were washed twice with 10 mL of media (DMEM), followed by the addition of 5 mL of DMEM containing 20 μg/mL of LIPOFECTIN™ (i.e., 1:1 (w/w) DOTMA/DOPE, Life Technologies, Gaithersburg, Md.; DOTMA=N-[1-(2,3-dioleyoxy)propyl]-N,N,N-trimethylammonium chloride; DOPE=dioleoyl phosphatidylethanolamine). The oligonucleotides were added from a 10 μM stock solution to a final concentration of 400 nM, and the two solutions were mixed by swirling the flasks. As a control, cells were treated with LIPOFECTIN™ without oligonucleotide under the same conditions and for the same times as the oligonucleotide-treated samples. After 4 hours at 37° C., the medium was replaced with fresh DMEM containing 10% serum. The cells were allowed to recover for 18 hours. Total cellular RNA was then extracted in guanidinium, subject to gel electrophoresis and transferred to a filter according to techniques known in the art (see, e.g., Chapter 7 In: Molecular Cloning: A Laboratory Manual, 2nd Ed., Sambrook et al., Eds., pages 7.1-7.87, and Short Protocols in Molecular Biology, 2nd Ed., Ausubel et al., Eds., John Wiley & Sons, New York, 1992, pages 2-24 to 2-30 and 4-14 to 4-29). Filters were typically hybridized overnight to a probe specific for the particular JNK gene of interest in hybridization buffer (25 mM KPO4, pH 7.4; 5×SSC; 5× Denhardt's solution, 100 μg/ml Salmon sperm DNA and 50% formamide) (Alahari et al., Nucl. Acids Res., 1993, 21, 4079). This was followed by two washes with 1×SSC, 0.1% SDS and two washes with 0.25×SSC, 0.1% SDS. Hybridizing bands were visualized by exposure to X-OMAT AR film and quantitated using a PHOSPHORIMAGER™ essentially according to the manufacturer's instructions (Molecular Dynamics, Sunnyvale, Calif.)
B. JNK2-specific probes: In initial screenings of a set of oligonucleotides derived from the JNK2 sequence (Table 9) for biological activity, a cDNA clone of JNK2 (Kallunki et al., Genes & Development, 1994, 8, 2996) was radiolabeled and used as a JNK2-specific probe in Northern blots. […]

[1] = JNK2 mRNA dose response, 100 nM
[2] = JNK2 mRNA dose response, 200 nM
[3] = JNK2 mRNA dose response, 400 nM
[4] = JNK2 mRNA time course, t=0 h after 4 hour treatment
[5] = JNK2 mRNA, A549 cells, 400 nM oligonucleotide
[6] = JNK2 mRNA, chemically modified oligonucleotides, dose 100 nM
[7] = JNK2 mRNA, chemically modified oligonucleotides, dose 400 nM

“12560 (antisense GTCCGGGCCAGGCCAAAGTC; DNA, all phosphorothioate, methylation of C not given here) [compound 12560]” was tested, and the “Normalized % Control” value (JNK2 mRNA dose response, 50 nM) was 68.1%, the “Normalized % Control” value [1] was 50.0% and the “Normalized % Control” value [2] was 25.1%. For the same substance, the “Normalized % Control” value [3] was 14.2%, the “% INHIBITION” value [4] was 79.8% and the “Normalized % Control” value [4] was 20.2%. The “% INHIBITION” value (JNK2 mRNA time course, t=4 h) was 88.9%, the “Normalized % Control” value (JNK2 mRNA time course, t=4 h) was 11.1% and the “% INHIBITION” value (JNK2 mRNA time course, t=12 h) was 78.2%. For the same substance, the “Normalized % Control” value (JNK2 mRNA time course, t=12 h) was 21.8%, the “% INHIBITION” value (JNK2 mRNA time course, t=48 h) was 57.3% and the “Normalized % Control” value (JNK2 mRNA time course, t=48 h) was 42.7%. The “% INHIBITION” value (JNK2 mRNA time course, t=72 h) was “(0.0) %”, the “Normalized % Control” value (JNK2 mRNA time course, t=72 h) was 116.8% and the “% EXPRESSION” value [5] was 11%. For the same substance, the “Normalized % Control” value [6] was 62.1% and the “Normalized % Control” value [7] was 31.4%.
With “12565 (antisense dT*dG*dA*dG*dA*dA*dG*dG*dA*dG*dT*dG*dG*dC*dG*dT*dT*dG*dC*dT) [compound 12565]” the “% EXPRESSION” value [5] was 19%.
For “12558 (antisense dG*dT*dT*dT*dC*dA*dG*dA*dT*dC*dC*dC*dT*dC*dG*dC*dC*dC*dG*dC) [compound 12558]”, the “% EXPRESSION” value [5] was 15%.
In the case of “GTC-CGG-GCC-AGG-CCA-AAG-TC (GTCCGGGCCAGGCCAAAGTC; chemistry not given here) [ISIS 12560]”, the “% INHIBITION” value (JNK2 mRNA time course, t=12 h) is reported as “greater than or equal to 80%” and the “% INHIBITION” value (JNK2 mRNA time course, t=48 h) is reported as “greater than or equal to 60%”.
With “15352 (antisense eG*eT*e[5mC]*e[5mC]*eG*eG*eG*e[5mC]*e[5mC]*eA*eG*eG*e[5mC]*e[5mC]*eA*eA*eA*eG*eT*e[5mC]) [compound 15352]” the “Normalized % Control” value [6] was 132.4% and the “Normalized % Control” value [7] was 158.4%.
With “15358 (antisense eGeTe[5mC]e[5mC]eGeGeGe[5mC]e[5mC]eAeG*dG*dC*dC*dA*dA*dA*dG*dT*e[5mC]) [compound 15358]” the “Normalized % Control” value [6] was 47.4% and the “Normalized % Control” value [7] was 29.4%.
In the case of “12562 (antisense dG*dC*dT*dC*dT*dC*dC*dC*dA*dT*dG*dA*dT*dG*dC*dA*dA*dC*dC*dC) [compound 12562]”, the “% EXPRESSION” value [5] is reported as 89% and the “% INHIBITION” value (JNK2 mRNA, A549 cells, 400 nM oligonucleotide, 100% - % expression) is reported as 11%.
In the case of “12559 (antisense dT*dG*dC*dA*dG*dC*dA*dC*dA*dA*dA*dC*dA*dA*dT*dC*dC*dC*dT*dT) [compound 12559]”, the “% EXPRESSION” value [5] is reported as 28%.
In the case of “14319 (GTGCGCGCGAGCCCGAAATC; DNA, all phosphorothioate, methylation of C not given here) [compound 14319]”, the “Normalized % Control” value (JNK2 mRNA dose response, 50 nM) is reported as 90.4%, the “Normalized % Control” value [1] is reported as 93.7% and the “Normalized % Control” value [2] is reported as 110.2%. The “Normalized % Control” value [3] was 100.0%.
For “12568 (antisense dC*dA*dT*dT*dT*dC*dA*dG*dG*dC*dC*dC*dA*dC*dG*dG*dA*dG*dG*dT) [compound 12568]”, the “% EXPRESSION” value [5] was 20%.
For “12569 (antisense dG*dG*dT*dC*dT*dG*dA*dA*dT*dA*dG*dG*dG*dC*dA*dA*dG*dG*dC*dA) [compound 12569]”, the “% EXPRESSION” value [5] was 13%.
“15356 (antisense dG*dT*dC*dC*dG*dG*dG*dC*dC*eA*eG*eG*e[5mC]*e[5mC]*eA*eA*eA*eG*eT*e[5mC]) [compound 15356]” was tested, and the “Normalized % Control” value [6] was 38.6% and the “Normalized % Control” value [7] was 11.0%.
With “15357 (antisense GTCCGGGCCAGGCCAAAGTC; wingmer: 5' deoxy phosphorothioate wing, 3' MOE phosphodiester wing, wing lengths not given here) [compound 15357]” the “Normalized % Control” value [6] was 42.8% and the “Normalized % Control” value [7] was 13.7%.
“12564 (antisense dC*dT*dG*dC*dT*dG*dC*dA*dT*dC*dT*dG*dA*dA*dG*dG*dC*dT*dG*dA) [compound 12564]” was tested, and the “% EXPRESSION” value [5] was 28%.
“12566 (antisense dT*dG*dC*dT*dG*dT*dC*dT*dG*dT*dG*dT*dC*dT*dG*dA*dG*dG*dC*dC) [compound 12566]” was tested, and the “% EXPRESSION” value [5] was 42%.
“15354 (antisense eGeTe[5mC]e[5mC]eG*dG*dG*dC*dC*dA*dG*dG*dC*dC*eAeAeAeGeTe[5mC]) [compound 15354]” was tested, and the “Normalized % Control” value [6] was 38.3%, the “Normalized % Control” value [7] was 17.1% and the “inhibition of JNK2 mRNA expression” value (chemically modified derivatives of ISIS 12560, 400 nM (text to Table 12)) was “approximately 80%”.
